Laboratory results as given in PubChem BioAssay (NCI).
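A five-concentration, 48-hour dose response in 96-well plates underlies each endpoint, interpolated linearly between surrounding concentrations. The concentration for full growth arrest is given as TGI.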

Key:
Test in all cases: DTP human tumour cell line panel, 48 h
SK-MEL-5 melanoma = tested on: SK-MEL-5 melanoma
KM12 colon = tested on: KM12 colon
HCC-2998 colon = tested on: HCC-2998 colon
UACC-257 melanoma = tested on: UACC-257 melanoma
SF-268 CNS = tested on: SF-268 CNS
HOP-18 NSCLC = tested on: HOP-18 NSCLC
COLO 205 colon = tested on: COLO 205 colon
UO-31 renal = tested on: UO-31 renal
HCT-15 colon = tested on: HCT-15 colon
HCT-116 colon = tested on: HCT-116 colon
OVCAR-5 ovarian = tested on: OVCAR-5 ovarian
MALME-3M melanoma = tested on: MALME-3M melanoma
M19-MEL melanoma = tested on: M19-MEL melanoma
SW-620 colon = tested on: SW-620 colon
OVCAR-4 ovarian = tested on: OVCAR-4 ovarian
OVCAR-8 ovarian = tested on: OVCAR-8 ovarian
SK-MEL-2 melanoma = tested on: SK-MEL-2 melanoma
DMS 114 small cell lung = tested on: DMS 114 small cell lung
XF 498 CNS = tested on: XF 498 CNS
EKVX NSCLC = tested on: EKVX NSCLC
LOX IMVI melanoma = tested on: LOX IMVI melanoma
SF-295 CNS = tested on: SF-295 CNS
OVCAR-3 ovarian = tested on: OVCAR-3 ovarian
SNB-19 CNS = tested on: SNB-19 CNS
SNB-75 CNS = tested on: SNB-75 CNS
NCI-H522 lung = tested on: NCI-H522 lung
HL-60(TB) leukemia = tested on: HL-60(TB) leukemia
A498 renal = tested on: A498 renal
KM20L2 colon = tested on: KM20L2 colon
UACC-62 melanoma = tested on: UACC-62 melanoma
ACHN renal = tested on: ACHN renal
RXF 393 renal = tested on: RXF 393 renal
LXFL 529 NSCLC = tested on: LXFL 529 NSCLC
HOP-92 NSCLC = tested on: HOP-92 NSCLC
NCI-H460 lung = tested on: NCI-H460 lung
786-0 renal = tested on: 786-0 renal
IGROV1 ovarian = tested on: IGROV1 ovarian
M14 melanoma = tested on: M14 melanoma
NCI-H23 lung = tested on: NCI-H23 lung
NCI-H226 lung = tested on: NCI-H226 lung
SK-OV-3 ovarian = tested on: SK-OV-3 ovarian
SF-539 CNS = tested on: SF-539 CNS
A549 NSCLC = tested on: A549 NSCLC
CCRF-CEM leukemia = tested on: CCRF-CEM leukemia
SNB-78 CNS = tested on: SNB-78 CNS
U251 CNS = tested on: U251 CNS
HT29 colon = tested on: HT29 colon
DLD-1 colon = tested on: DLD-1 colon
SK-MEL-28 melanoma = tested on: SK-MEL-28 melanoma
SN12C renal = tested on: SN12C renal
TK-10 renal = tested on: TK-10 renal
HOP-62 NSCLC = tested on: HOP-62 NSCLC
K-562 leukemia = tested on: K-562 leukemia
MOLT-4 leukemia = tested on: MOLT-4 leukemia
CAKI-1 renal = tested on: CAKI-1 renal
DMS 273 small cell lung = tested on: DMS 273 small cell lung
RPMI-8226 leukemia = tested on: RPMI-8226 leukemia
SR leukemia = tested on: SR leukemia

## CCCCCCCCCCCCCS(=O)(=O)NCC(N)=O
SK-MEL-5 melanoma
  TGI: > 100 µM
KM12 colon
  TGI: > 100 µM
HCC-2998 colon
  TGI: > 100 µM
UACC-257 melanoma
  TGI: > 100 µM
SF-268 CNS
  TGI: > 100 µM
HOP-18 NSCLC
  TGI: > 100 µM
COLO 205 colon
  TGI: > 100 µM
UO-31 renal
  TGI: > 100 µM
HCT-15 colon
  TGI: > 100 µM
HCT-116 colon
  TGI: > 100 µM
OVCAR-5 ovarian
  TGI: > 100 µM
MALME-3M melanoma
  TGI: > 100 µM
M19-MEL melanoma
  TGI: > 100 µM
SW-620 colon
  TGI: > 100 µM
OVCAR-4 ovarian
  TGI: > 100 µM
OVCAR-8 ovarian
  TGI: > 100 µM
SK-MEL-2 melanoma
  TGI: > 100 µM
DMS 114 small cell lung
  TGI: > 100 µM
XF 498 CNS
  TGI: > 100 µM
EKVX NSCLC
  TGI: > 100 µM
LOX IMVI melanoma
  TGI: > 100 µM
SF-295 CNS
  TGI: > 100 µM
OVCAR-3 ovarian
  TGI: > 100 µM
SNB-19 CNS
  TGI: > 100 µM
SNB-75 CNS
  TGI: 74.7 µM
NCI-H522 lung
  TGI: > 100 µM
HL-60(TB) leukemia
  TGI: > 100 µM
A498 renal
  TGI: > 100 µM
KM20L2 colon
  TGI: > 100 µM
UACC-62 melanoma
  TGI: > 100 µM
ACHN renal
  TGI: > 100 µM
RXF 393 renal
  TGI: > 100 µM
LXFL 529 NSCLC
  TGI: > 100 µM
HOP-92 NSCLC
  TGI: > 100 µM
NCI-H460 lung
  TGI: > 100 µM
786-0 renal
  TGI: > 100 µM
IGROV1 ovarian
  TGI: > 100 µM
M14 melanoma
  TGI: > 100 µM
NCI-H23 lung
  TGI: > 100 µM
NCI-H226 lung
  TGI: > 100 µM
SK-OV-3 ovarian
  TGI: > 100 µM
SF-539 CNS
  TGI: > 100 µM
A549 NSCLC
  TGI: > 100 µM
CCRF-CEM leukemia
  TGI: > 100 µM
SNB-78 CNS
  TGI: > 100 µM
U251 CNS
  TGI: > 100 µM
HT29 colon
  TGI: > 100 µM
DLD-1 colon
  TGI: > 100 µM
SK-MEL-28 melanoma
  TGI: > 100 µM
SN12C renal
  TGI: > 100 µM
TK-10 renal
  TGI: > 100 µM
HOP-62 NSCLC
  TGI: > 100 µM

## N#Cc1ccc(C2SCc3nc4ccccc4n32)cc1 (stereo unspecified)
SK-MEL-5 melanoma
  TGI: > 100 µM
KM12 colon
  TGI: > 100 µM
HCC-2998 colon
  TGI: > 100 µM
UACC-257 melanoma
  TGI: > 100 µM
SF-268 CNS
  TGI: > 100 µM
HOP-18 NSCLC
  TGI: > 100 µM
COLO 205 colon
  TGI: > 100 µM
UO-31 renal
  TGI: 73.6 µM
HCT-15 colon
  TGI: > 100 µM
HCT-116 colon
  TGI: > 100 µM
MALME-3M melanoma
  TGI: > 100 µM
M19-MEL melanoma
  TGI: > 100 µM
SW-620 colon
  TGI: > 100 µM
OVCAR-4 ovarian
  TGI: > 100 µM
OVCAR-8 ovarian
  TGI: > 100 µM
SK-MEL-2 melanoma
  TGI: > 100 µM
XF 498 CNS
  TGI: > 100 µM
EKVX NSCLC
  TGI: > 100 µM
SF-295 CNS
  TGI: > 100 µM
K-562 leukemia
  TGI: > 100 µM
OVCAR-3 ovarian
  TGI: > 100 µM
SNB-19 CNS
  TGI: > 100 µM
SNB-75 CNS
  TGI: > 100 µM
NCI-H522 lung
  TGI: 75.8 µM
HL-60(TB) leukemia
  TGI: > 100 µM
A498 renal
  TGI: > 100 µM
KM20L2 colon
  TGI: > 100 µM
UACC-62 melanoma
  TGI: > 100 µM
ACHN renal
  TGI: > 100 µM
RXF 393 renal
  TGI: > 100 µM
LXFL 529 NSCLC
  TGI: > 100 µM
NCI-H460 lung
  TGI: > 100 µM
786-0 renal
  TGI: > 100 µM
IGROV1 ovarian
  TGI: > 100 µM
M14 melanoma
  TGI: > 100 µM
NCI-H23 lung
  TGI: > 100 µM
MOLT-4 leukemia
  TGI: > 100 µM
CAKI-1 renal
  TGI: > 100 µM
SK-OV-3 ovarian
  TGI: > 100 µM
SF-539 CNS
  TGI: > 100 µM
A549 NSCLC
  TGI: > 100 µM
CCRF-CEM leukemia
  TGI: > 100 µM
SNB-78 CNS
  TGI: > 100 µM
DMS 273 small cell lung
  TGI: > 100 µM
U251 CNS
  TGI: > 100 µM
DLD-1 colon
  TGI: > 100 µM
RPMI-8226 leukemia
  TGI: > 100 µM
SK-MEL-28 melanoma
  TGI: > 100 µM
SN12C renal
  TGI: > 100 µM
TK-10 renal
  TGI: > 100 µM
HOP-62 NSCLC
  TGI: > 100 µM

## Cc1nn2c(c1C#N)NNc1c-2sc(=N)nnc1=O
SK-MEL-5 melanoma
  TGI: > 100 µM
KM12 colon
  TGI: > 100 µM
SF-268 CNS
  TGI: > 100 µM
HOP-18 NSCLC
  TGI: > 100 µM
COLO 205 colon
  TGI: > 100 µM
UO-31 renal
  TGI: > 100 µM
HCT-116 colon
  TGI: > 100 µM
OVCAR-5 ovarian
  TGI: > 100 µM
MALME-3M melanoma
  TGI: > 100 µM
M19-MEL melanoma
  TGI: > 100 µM
SW-620 colon
  TGI: > 100 µM
OVCAR-4 ovarian
  TGI: > 100 µM
OVCAR-8 ovarian
  TGI: > 100 µM
EKVX NSCLC
  TGI: > 100 µM
SF-295 CNS
  TGI: > 100 µM
K-562 leukemia
  TGI: > 100 µM
OVCAR-3 ovarian
  TGI: > 100 µM
SNB-19 CNS
  TGI: > 100 µM
NCI-H522 lung
  TGI: > 100 µM
HL-60(TB) leukemia
  TGI: > 100 µM
KM20L2 colon
  TGI: > 100 µM
UACC-62 melanoma
  TGI: > 100 µM
RXF 393 renal
  TGI: > 100 µM
LXFL 529 NSCLC
  TGI: > 100 µM
HOP-92 NSCLC
  TGI: > 100 µM
786-0 renal
  TGI: > 100 µM
IGROV1 ovarian
  TGI: > 100 µM
M14 melanoma
  TGI: > 100 µM
SR leukemia
  TGI: > 100 µM
NCI-H23 lung
  TGI: > 100 µM
MOLT-4 leukemia
  TGI: > 100 µM
CAKI-1 renal
  TGI: > 100 µM
SK-OV-3 ovarian
  TGI: > 100 µM
SF-539 CNS
  TGI: > 100 µM
A549 NSCLC
  TGI: > 100 µM
CCRF-CEM leukemia
  TGI: > 100 µM
U251 CNS
  TGI: > 100 µM
HT29 colon
  TGI: > 100 µM
DLD-1 colon
  TGI: > 100 µM
RPMI-8226 leukemia
  TGI: > 100 µM
SK-MEL-28 melanoma
  TGI: > 100 µM
SN12C renal
  TGI: > 100 µM
TK-10 renal
  TGI: > 100 µM
HOP-62 NSCLC
  TGI: > 100 µM

## Brc1ccc(-c2cc3c(cc2C2SCCS2)OCO3)cc1
SK-MEL-5 melanoma
  TGI: > 100 µM
KM12 colon
  TGI: > 100 µM
HCC-2998 colon
  TGI: > 100 µM
UACC-257 melanoma
  TGI: > 100 µM
SF-268 CNS
  TGI: > 100 µM
HOP-18 NSCLC
  TGI: > 100 µM
COLO 205 colon
  TGI: > 100 µM
UO-31 renal
  TGI: 90.4 µM
HCT-15 colon
  TGI: > 100 µM
HCT-116 colon
  TGI: > 100 µM
OVCAR-5 ovarian
  TGI: > 100 µM
MALME-3M melanoma
  TGI: > 100 µM
M19-MEL melanoma
  TGI: > 100 µM
SW-620 colon
  TGI: > 100 µM
OVCAR-4 ovarian
  TGI: > 100 µM
OVCAR-8 ovarian
  TGI: > 100 µM
SK-MEL-2 melanoma
  TGI: > 100 µM
DMS 114 small cell lung
  TGI: > 100 µM
XF 498 CNS
  TGI: > 100 µM
EKVX NSCLC
  TGI: 75.1 µM
LOX IMVI melanoma
  TGI: > 100 µM
SF-295 CNS
  TGI: > 100 µM
K-562 leukemia
  TGI: > 100 µM
OVCAR-3 ovarian
  TGI: 75.9 µM
SNB-19 CNS
  TGI: > 100 µM
SNB-75 CNS
  TGI: 39.9 µM
NCI-H522 lung
  TGI: 40.9 µM
HL-60(TB) leukemia
  TGI: > 100 µM
A498 renal
  TGI: 93.3 µM
KM20L2 colon
  TGI: > 100 µM
ACHN renal
  TGI: > 100 µM
RXF 393 renal
  TGI: 77.2 µM
LXFL 529 NSCLC
  TGI: > 100 µM
NCI-H460 lung
  TGI: > 100 µM
786-0 renal
  TGI: > 100 µM
IGROV1 ovarian
  TGI: > 100 µM
M14 melanoma
  TGI: > 100 µM
SR leukemia
  TGI: 86.9 µM
NCI-H23 lung
  TGI: > 100 µM
MOLT-4 leukemia
  TGI: > 100 µM
NCI-H226 lung
  TGI: 40.3 µM
SK-OV-3 ovarian
  TGI: > 100 µM
SF-539 CNS
  TGI: 39.1 µM
A549 NSCLC
  TGI: > 100 µM
CCRF-CEM leukemia
  TGI: > 100 µM
SNB-78 CNS
  TGI: > 100 µM
DMS 273 small cell lung
  TGI: > 100 µM
U251 CNS
  TGI: > 100 µM
HT29 colon
  TGI: > 100 µM
DLD-1 colon
  TGI: > 100 µM
SK-MEL-28 melanoma
  TGI: > 100 µM
SN12C renal
  TGI: > 100 µM
TK-10 renal
  TGI: > 100 µM
HOP-62 NSCLC
  TGI: > 100 µM
